Source: US20260217701A1, “SELECTIVE BET INHIBITORS AND USES THEREOF” (Tay Therapeutics Limited, priority 2022, published 2026)
“And” between values parts separate entries of the source, which are not always exact repeats. Equal entries are not always repeated.

Test system: collagen-induced arthritis
Assay: Collagen-induced arthritis (CIA) model: clinical scores and paw volume; on Average animal paw volume percent change (%): reference of the scale not given here; on animal paw volume percent change (%): reference of the scale not given here
Assay type: in vivo, Lewis rats
Settings: for Average animal paw volume percent change (%) / Animal paw volume percent change (%) / Average animal paw volume: group 4 CIA + GSK620 (10 mg/kg); for Animal paw volume percent change (%) / clinical score left forelimb / clinical score left hind limb / clinical score right forelimb / clinical score right hind limb / clinical score, score (all limbs) / Animal paw volume: individual animals; for Animal paw volume: Group 4 (CIA + GSK620)
[1] = group 4 CIA + GSK620, 2nd section of table, 1st day (between Day 12 and Day 18)
[2] = group 4 CIA + GSK620, 2nd section of table, 2nd day (between Day 12 and Day 18)
[3] = group 4 CIA + GSK620, 2nd section of table, 3rd day (between Day 12 and Day 18)

Compound: CNC(=O)c1cc(C(=O)NC2CC2)cn(Cc2ccccc2)c1=O [GSK620]
- Percent Inhibition in clinical score (Mean ± SD) (CIA rats, 10 mg/kg): 37 ± 14%
- Percent Inhibition in paw volume (Mean ± SD) (CIA rats, 10 mg/kg): 28 ± 21%
- Average animal paw volume percent change (%) (Day 0, L paw): 0.00%
- Animal paw volume percent change (%) (Day 0, L paw): 0.00%
- Average animal paw volume percent change (%) (Day 0, R paw): 0.00%
- Animal paw volume percent change (%) (Day 0, R paw): 0.00%
- Average overall clinical score (Day 0, CIA): 0
- clinical score left forelimb (Day 0, CIA): 0
- clinical score left hind limb (Day 0, CIA): 0
- clinical score right forelimb (Day 0, CIA): 0
- clinical score right hind limb (Day 0, CIA): 0
- clinical score, score (all limbs) (Day 0, CIA): 0
- Average animal paw volume (Day 6, L paw): 1.34 mL
- Animal paw volume percent change (%) (Day 6, L paw, 10 mg/kg): −0.39% and −0.73% and 0.36% and 0.00% (2×) and −0.37%
- Average animal paw volume (Day 6, R paw): 1.34 mL
- Average animal paw volume percent change (%) (Day 6, R paw): 1.50%
- Animal paw volume percent change (%) (Day 6, R paw, 10 mg/kg): −0.39% and 0.00% (4×)
- Average overall clinical score (Day 6, CIA): 0
- clinical score left forelimb (Day 6, CIA): 0
- clinical score left hind limb (Day 6, CIA): 0
- clinical score right forelimb (Day 6, CIA): 0
- clinical score right hind limb (Day 6, CIA): 0
- clinical score, score (all limbs) (Day 6, CIA): 0
- Average animal paw volume (Day 12, L paw): 1.36 mL
- Animal paw volume percent change (%) (Day 12, L paw, 10 mg/kg): 0.76% and 0.00% and 1.50%
- Average animal paw volume (Day 12, R paw): 1.37 mL
- Average overall clinical score (Day 12, CIA): 0
- clinical score left forelimb (Day 12, CIA): 0
- clinical score left hind limb (Day 12, CIA): 0
- clinical score right forelimb (Day 12, CIA): 0
- clinical score right hind limb (Day 12, CIA): 0
- clinical score, score (all limbs) (Day 12, CIA): 0
- Average animal paw volume (Day 13, L paw): 1.38 mL
- Animal paw volume percent change (%) (Day 13, L paw, 10 mg/kg): −0.73%
- Average animal paw volume (Day 13, R paw): 1.41 mL
- Average detailed clinical score, right hind limb (Day 13, CIA): 0.125
- Average detailed clinical score, score (Day 13, CIA): 0.125
- Average overall clinical score (Day 13, CIA): 0
- clinical score left forelimb (Day 13, CIA): 0
- clinical score left hind limb (Day 13, CIA): 0
- clinical score right forelimb (Day 13, CIA): 0
- clinical score right hind limb (Day 13, CIA): 0 (6×) and 1
- clinical score, score (all limbs) (Day 13, CIA): 0 (6×) and 1
- Animal paw volume (Day 13, L paw): 1.40 mL
- Animal paw volume (Day 13, R paw): 1.40 mL
- Animal paw volume percent change (%) (Day 14, L paw, 10 mg/kg): −0.37%
- Animal paw volume percent change (%) (Day 14, R paw, 10 mg/kg): 4.40%
- Average detailed clinical score, left hind limb (Day 14, CIA): 0.875
- Average detailed clinical score, right hind limb (Day 14, CIA): 1.125
- Average overall clinical score (Day 14, CIA): 2
- clinical score left forelimb (Day 14, CIA): 0
- clinical score left hind limb (Day 14, CIA): 0 (4×) and 2 (2×) and 1
- clinical score right forelimb (Day 14, CIA): 0
- clinical score right hind limb (Day 14, CIA): 0 (4×) and 2 (2×) and 3
- clinical score, score (all limbs) (Day 14, CIA): 0 (3×) and 4 and 3 (2×) and 2
- Animal paw volume (Day 14, L paw): 1.40 mL
- Average animal paw volume (Day 15, L paw): 1.74 mL
- Animal paw volume percent change (%) (Day 15, R paw, 10 mg/kg): 59.00%
- Average detailed clinical score, left hind limb (Day 15, CIA): 1.625
- Average detailed clinical score, score (Day 15, CIA): 3.625
- Average overall clinical score (Day 15, CIA): 4
- clinical score left forelimb (Day 15, CIA): 0
- clinical score left hind limb (Day 15, CIA): 1 (2×) and 3 (3×) and 0 (2×)
- clinical score right forelimb (Day 15, CIA): 0
- clinical score right hind limb (Day 15, CIA): 1 and 3 (3×) and 0 (2×) and 4
- clinical score, score (all limbs) (Day 15, CIA): 2 and 6 (3×) and 0 and 4 and 1
- Animal paw volume (Day 15, L paw): 1.60 mL
- Average overall clinical score (Day 18, CIA): 7
- Average animal paw volume (Day 19, L paw): 2.54 mL
- Animal paw volume percent change (%) (Day 19, L paw, 10 mg/kg): 83.00% and 100.00%
- Average overall clinical score (Day 19, CIA): 8
- Animal paw volume (Day 19, R paw): 2.20 mL
- Average overall clinical score (Day 21, CIA): 8
- clinical score left forelimb [1]: 0
- clinical score left hind limb [1]: 0
- clinical score right forelimb [1]: 0
- clinical score right hind limb [1]: 0
- clinical score, score (all limbs) [1]: 0
- clinical score left forelimb [2]: 0
- clinical score left hind limb [2]: 2
- clinical score right forelimb [2]: 0
- clinical score right hind limb [2]: 2
- clinical score, score (all limbs) [2]: 4
- clinical score left forelimb [3]: 0
- clinical score left hind limb [3]: 2
- clinical score right forelimb [3]: 0
- clinical score right hind limb [3]: 2
- clinical score, score (all limbs) [3]: 4
- clinical score left forelimb (group 4 CIA + GSK620, Day 18): 0
- clinical score left hind limb (group 4 CIA + GSK620, Day 18): 4 (7×) and 3
- clinical score right forelimb (group 4 CIA + GSK620, Day 18): 0
- clinical score right hind limb (group 4 CIA + GSK620, Day 18): 4 (6×) and 0 and 3
- clinical score, score (all limbs) (group 4 CIA + GSK620, Day 18): 8 (6×) and 4 and 6
- clinical score left forelimb (group 4 CIA + GSK620, Day 19): 1 (6×) and 0 (2×)
- clinical score left hind limb (group 4 CIA + GSK620, Day 19): 4 (5×) and 3 (3×)
- clinical score right forelimb (group 4 CIA + GSK620, Day 19): 0 (6×) and 1 (2×)
- clinical score right hind limb (group 4 CIA + GSK620, Day 19): 4 (3×) and 3 (4×) and 0
- clinical score, score (all limbs) (group 4 CIA + GSK620, Day 19): 9 (2×) and 10 and 6 and 5 and 7 (2×) and 8
- clinical score left forelimb (group 4 CIA + GSK620, Day 20): 1 (5×) and 2 and 0 (2×)
- clinical score left hind limb (group 4 CIA + GSK620, Day 20): 4 (5×) and 3 (3×)
- clinical score right forelimb (group 4 CIA + GSK620, Day 20): 0 (6×) and 1 (2×)
- clinical score right hind limb (group 4 CIA + GSK620, Day 20): 4 (3×) and 3 (4×) and 1
- clinical score, score (all limbs) (group 4 CIA + GSK620, Day 20): 9 (2×) and 11 and 6 (2×) and 7 (2×) and 8
